# Assay results as given in ChEMBL document CHEMBL3585344, “Thiazole-based aminopyrimidines and N-phenylpyrazolines as potent antimicrobial agents: synthesis and biological evaluation” (2014).
# Experiments:
# [1] = test system: Penicillium ochrochloron; assay: Antifungal activity against Penicillium ochrochloron ATCC 9112 after 72 hrs by microdilution method; format: functional; conditions: ATCC 9112, 72 h
# [2] = test system: Pseudomonas aeruginosa; assay: Bactericidal activity against Pseudomonas aeruginosa ATCC 27853 after 72 hrs by microdilution method; format: functional
# [3] = test system: Listeria monocytogenes; assay: Bactericidal activity against Listeria monocytogenes NCTC 7973 after 72 hrs by microdilution method; format: functional
# [4] = test system: Aspergillus ochraceus; assay: Antifungal activity against Aspergillus ochraceus ATCC 12066 after 72 hrs by microdilution method; format: functional; conditions: ATCC 12066, 72 h
# [5] = test system: Escherichia coli; assay: Bactericidal activity against Escherichia coli ATCC 35210 after 72 hrs by microdilution method; format: functional
# [6] = test system: Aspergillus versicolor; assay: Antifungal activity against Aspergillus versicolor ATCC 11730 after 72 hrs by microdilution method; format: functional; conditions: ATCC 11730, 72 h
# [7] = test system: Micrococcus flavus; assay: Antibacterial activity against Micrococcus flavus ATCC 10240 after 24 hrs by microdilution method; format: functional; conditions: ATCC 10240, 24 h
# [8] = test system: Aspergillus flavus; assay: Antifungal activity against Aspergillus flavus ATCC 9643 after 72 hrs by microdilution method; format: functional; conditions: ATCC 9643, 72 h
# [9] = test system: Escherichia coli; assay: Antibacterial activity against Escherichia coli ATCC 35210 after 24 hrs by microdilution method; format: functional; conditions: ATCC 35210, 24 h
# [10] = test system: Aspergillus ochraceus; assay: Fungicidal activity against Aspergillus ochraceus ATCC 12066 after 72 hrs by microdilution method; format: functional
# [11] = test system: Bacillus cereus; assay: Antibacterial activity against Bacillus cereus clinical isolate after 24 hrs by microdilution method; format: functional
# [12] = test system: Aspergillus flavus; assay: Fungicidal activity against Aspergillus flavus ATCC 9643 after 72 hrs by microdilution method; format: functional
# [13] = test system: Bacillus cereus; assay: Bactericidal activity against Bacillus cereus clinical isolate after 72 hrs by microdilution method; format: functional
# [14] = test system: Enterococcus faecalis; assay: Bactericidal activity against Enterococcus faecalis ATCC 7080 isolated from human after 72 hrs by microdilution method; format: functional
# [15] = test system: Talaromyces funiculosus; assay: Antifungal activity against Penicillium funiculosum ATCC 36839 after 72 hrs by microdilution method; format: functional; conditions: ATCC 36839, 72 h
# [16] = test system: Trichoderma viride; assay: Fungicidal activity against Trichoderma viride IAM 5061 after 72 hrs by microdilution method; format: functional
# [17] = test system: Aspergillus niger; assay: Fungicidal activity against Aspergillus niger ATCC 6275 after 72 hrs by microdilution method; format: functional
# [18] = test system: Aspergillus versicolor; assay: Fungicidal activity against Aspergillus versicolor ATCC 11730 after 72 hrs by microdilution method; format: functional
# [19] = test system: Salmonella typhimurium; assay: Bactericidal activity against Salmonella typhimurium ATCC 13311 after 72 hrs by microdilution method; format: functional, Salmonella enterica subsp. enterica serovar Typhimurium
# [20] = test system: Aspergillus niger; assay: Antifungal activity against Aspergillus niger ATCC 6275 after 72 hrs by microdilution method; format: functional; conditions: ATCC 6275, 72 h
# [21] = test system: Pseudomonas aeruginosa; assay: Antibacterial activity against Pseudomonas aeruginosa ATCC 27853 after 24 hrs by microdilution method; format: functional; conditions: ATCC 27853, 24 h
# [22] = test system: Trichoderma viride; assay: Antifungal activity against Trichoderma viride IAM 5061 after 72 hrs by microdilution method; format: functional; conditions: IAM 5061, 72 h
# [23] = test system: Penicillium ochrochloron; assay: Fungicidal activity against Penicillium ochrochloron ATCC 9112 after 72 hrs by microdilution method; format: functional
# [24] = test system: Salmonella typhimurium; assay: Antibacterial activity against Salmonella typhimurium ATCC 13311 after 24 hrs by microdilution method; format: functional, Salmonella enterica subsp. enterica serovar Typhimurium; conditions: Salmonella enterica, ATCC 13311, 24 h
# [25] = test system: Staphylococcus aureus; assay: Bactericidal activity against Staphylococcus aureus ATCC 6538 after 72 hrs by microdilution method; format: functional
# [26] = test system: Enterococcus faecalis; assay: Antibacterial activity against Enterococcus faecalis ATCC 7080 isolated from human after 24 hrs by microdilution method; format: functional; conditions: ATCC 7080, 24 h
# [27] = test system: Micrococcus flavus; assay: Bactericidal activity against Micrococcus flavus ATCC 10240 after 72 hrs by microdilution method; format: functional
# [28] = test system: Staphylococcus aureus; assay: Antibacterial activity against Staphylococcus aureus ATCC 6538 after 24 hrs by microdilution method; format: functional; conditions: ATCC 6538, 24 h
# [29] = test system: Aspergillus fumigatus; assay: Antifungal activity against Aspergillus fumigatus isolated from human after 72 hrs by microdilution method; format: functional
# [30] = test system: Aspergillus fumigatus; assay: Fungicidal activity against Aspergillus fumigatus isolated from human after 72 hrs by microdilution method; format: functional
# [31] = test system: Listeria monocytogenes; assay: Antibacterial activity against Listeria monocytogenes NCTC 7973 after 24 hrs by microdilution method; format: functional; conditions: NCTC 7973, 24 h
# [32] = test system: Talaromyces funiculosus; assay: Fungicidal activity against Penicillium funiculosum ATCC 36839 after 72 hrs by microdilution method; format: functional
structure (smiles),measurement,setting,value
CCNc1nc(C)c(C2=NN(c3ccccc3)C(c3ccccc3)C2)s1 (configuration not stated),MIC,[1],309 µM
same,MBC99.5,[2],44.16 ×10⁻² umol/ml
same,MBC99.5,[3],11.04 ×10⁻² umol/ml
same,MIC,[4],27.6 µM
same,MBC99.5,[5],44.16 ×10⁻² umol/ml
same,MIC,[6],55.2 µM
same,MIC,[7],110 µM
same,MIC,[8],110 µM
same,MIC,[9],276 µM
same,MFC99.5,[10],11.04 ×10⁻² umol/ml
same,MIC,[11],55.2 µM
same,MFC99.5,[12],27.6 ×10⁻² umol/ml
same,MBC99.5,[13],27.6 ×10⁻² umol/ml
same,MBC99.5,[14],27.6 ×10⁻² umol/ml
same,MIC,[15],110 µM
same,MFC99.5,[16],30.9 ×10⁻² umol/ml
same,MFC99.5,[17],44.16 ×10⁻² umol/ml
same,MFC99.5,[18],27.6 ×10⁻² umol/ml
same,MBC99.5,[19],30.9 ×10⁻² umol/ml
same,MIC,[20],309 µM
same,MIC,[21],276 µM
same,MIC,[22],276 µM
same,MFC99.5,[23],44.16 ×10⁻² umol/ml
same,MIC,[24],276 µM
same,MBC99.5,[25],27.6 ×10⁻² umol/ml
same,MIC,[26],110 µM
same,MBC99.5,[27],44.16 ×10⁻² umol/ml
same,MIC,[28],27.6 µM
same,MIC,[29],110 µM
same,MFC99.5,[30],44.16 ×10⁻² umol/ml
same,MIC,[31],55.2 µM
same,MFC99.5,[32],30.9 ×10⁻² umol/ml
